# Reference: ChEMBL document CHEMBL3885881, “DrugMatrix”
# Organism: Rattus norvegicus
# Experiment: DrugMatrix - Regimen: Daily Repeat
# Type: toxicity, organism-based, Sprague-Dawley
# Design: regimen Daily Repeat, gender Male, age 6-8 weeks
# Details: in vivo, po, route oral GAVAGE, […]; for ABSOLUTE BASOPHIL / ABSOLUTE EOSINOPHIL / BASOPHIL / NUCLEATED RED BLOOD CELLS / EOSINOPHIL / ABSOLUTE MONOCYTE / ABSOLUTE SEGMENTED NEUTROPHIL / ERYTHROCYTE COUNT / HEMATOCRIT / HEMOGLOBIN / LEUKOCYTE COUNT / LYMPHOCYTE / MEAN CORPUSCULAR HEMOGLOBIN / MEAN CORPUSCULAR HEMOGLOBIN CONCENTRATION / MEAN CORPUSCULAR VOLUME / MONOCYTE / NEUTROPHIL / PLATELET COUNT: tissue Blood; for CREATININE / POTASSIUM / TOTAL BILIRUBIN / ALANINE AMINOTRANSFERASE / ALBUMIN / ASPARTATE AMINOTRANSFERASE / BLOOD UREA NITROGEN / CARBON DIOXIDE / CHLORIDE / CHOLESTEROL / CREATINE PHOSPHOKINASE / GLUCOSE / LACTATE DEHYDROGENASE / PHOSPHORUS / SODIUM / TOTAL PROTEIN / URIC ACID / LIPASE: tissue Plasma
# [1] = 0 mg/kg, 72 h, dose level Control, time 3 day
# [2] = 0 mg/kg, 120 h, dose level Control, time 5 day
# [3] = 100 mg/kg, 72 h, dose level Low, time 3 day
# [4] = 100 mg/kg, 120 h, dose level Low, time 5 day
# [5] = 750 mg/kg, 72 h, dose level High, time 3 day
# [6] = 750 mg/kg, 120 h, dose level High, time 5 day
compound,measurement,setting,value
COc1cc([C@@H]2c3cc4c(cc3[C@@H](O[C@@H]3O[C@@H]5CO[C@@H](C)O[C@H]5[C@H](O)[C@H]3O)[C@H]3COC(=O)[C@H]23)OCO4)cc(OC)c1O [ETOPOSIDE],ABSOLUTE BASOPHIL,[1],0 CELLS/uL
same,ABSOLUTE EOSINOPHIL,[1],52.33 CELLS/uL
same,BASOPHIL,[1],0%
same,NUCLEATED RED BLOOD CELLS,[1],0 /100WBC
same,CREATININE,[1],0.33 mg/dL
same,POTASSIUM,[1],5.37 MEQ/L
same,TOTAL BILIRUBIN,[1],0.2 mg/dL
same,ABSOLUTE BASOPHIL,[2],0 CELLS/uL
same,ABSOLUTE EOSINOPHIL,[2],0 CELLS/uL
same,BASOPHIL,[2],0%
same,EOSINOPHIL,[2],0%
same,TOTAL BILIRUBIN,[2],0.37 mg/dL
same,ABSOLUTE BASOPHIL,[3],0 CELLS/uL
same,ABSOLUTE EOSINOPHIL,[3],0 CELLS/uL
same,ABSOLUTE MONOCYTE,[3],20.33 CELLS/uL
same,ABSOLUTE SEGMENTED NEUTROPHIL,[3],390.33 CELLS/uL
same,BASOPHIL,[3],0%
same,EOSINOPHIL,[3],0%
same,ERYTHROCYTE COUNT,[3],4.86 x10E6/uL
same,HEMATOCRIT,[3],29.9%
same,HEMOGLOBIN,[3],12.13 G/DL
same,LEUKOCYTE COUNT,[3],5.67 x10E3/uL
same,LYMPHOCYTE,[3],90%
same,MEAN CORPUSCULAR HEMOGLOBIN,[3],24.93 pg
same,MEAN CORPUSCULAR HEMOGLOBIN CONCENTRATION,[3],40.57 G/DL
same,MEAN CORPUSCULAR VOLUME,[3],61.53 fL
same,MONOCYTE,[3],0.33%
same,NEUTROPHIL,[3],9.67%
same,NUCLEATED RED BLOOD CELLS,[3],0 /100WBC
same,PLATELET COUNT,[3],1214.33 x10E3/uL
same,ALANINE AMINOTRANSFERASE,[3],36.67 u/L
same,ALBUMIN,[3],3.7 G/DL
same,ASPARTATE AMINOTRANSFERASE,[3],67.67 u/L
same,BLOOD UREA NITROGEN,[3],7.67 mg/dL
same,CARBON DIOXIDE,[3],27 mmol/L
same,CHLORIDE,[3],102.67 MEQ/L
same,CHOLESTEROL,[3],92 mg/dL
same,CREATINE PHOSPHOKINASE,[3],255.67 u/L
same,CREATININE,[3],0.23 mg/dL
same,GLUCOSE,[3],185 mg/dL
same,LACTATE DEHYDROGENASE,[3],162.33 u/L
same,PHOSPHORUS,[3],11 mg/dL
same,POTASSIUM,[3],4.69 MEQ/L
same,SODIUM,[3],145 MEQ/L
same,TOTAL BILIRUBIN,[3],0.1 mg/dL
same,TOTAL PROTEIN,[3],5.5 G/DL
same,URIC ACID,[3],0.8 mg/dL
same,ABSOLUTE BASOPHIL,[4],0 CELLS/uL
same,ABSOLUTE EOSINOPHIL,[4],0 CELLS/uL
same,ABSOLUTE MONOCYTE,[4],12 CELLS/uL
same,ABSOLUTE SEGMENTED NEUTROPHIL,[4],593.67 CELLS/uL
same,BASOPHIL,[4],0%
same,EOSINOPHIL,[4],0%
same,ERYTHROCYTE COUNT,[4],4.82 x10E6/uL
same,HEMATOCRIT,[4],30.6%
same,HEMOGLOBIN,[4],12.2 G/DL
same,LEUKOCYTE COUNT,[4],4.43 x10E3/uL
same,LYMPHOCYTE,[4],86%
same,MEAN CORPUSCULAR HEMOGLOBIN,[4],25.37 pg
same,MEAN CORPUSCULAR HEMOGLOBIN CONCENTRATION,[4],39.9 G/DL
same,MEAN CORPUSCULAR VOLUME,[4],63.67 fL
same,MONOCYTE,[4],0.33%
same,NEUTROPHIL,[4],13.67%
same,NUCLEATED RED BLOOD CELLS,[4],0 /100WBC
same,PLATELET COUNT,[4],1205.67 x10E3/uL
same,ALANINE AMINOTRANSFERASE,[4],53.33 u/L
same,ALBUMIN,[4],3.97 G/DL
same,ASPARTATE AMINOTRANSFERASE,[4],81 u/L
same,BLOOD UREA NITROGEN,[4],8.33 mg/dL
same,CHLORIDE,[4],104.33 MEQ/L
same,CHOLESTEROL,[4],87.67 mg/dL
same,CREATINE PHOSPHOKINASE,[4],278.33 u/L
same,CREATININE,[4],0.3 mg/dL
same,GLUCOSE,[4],157 mg/dL
same,LACTATE DEHYDROGENASE,[4],65.67 u/L
same,LIPASE,[4],8.67 u/L
same,PHOSPHORUS,[4],9.87 mg/dL
same,POTASSIUM,[4],5.33 MEQ/L
same,SODIUM,[4],145.8 MEQ/L
same,TOTAL BILIRUBIN,[4],0.1 mg/dL
same,TOTAL PROTEIN,[4],5.6 G/DL
same,URIC ACID,[4],0.4 mg/dL
same,ABSOLUTE BASOPHIL,[5],0 CELLS/uL
same,ABSOLUTE EOSINOPHIL,[5],0 CELLS/uL
same,ABSOLUTE MONOCYTE,[5],23 CELLS/uL
same,ABSOLUTE SEGMENTED NEUTROPHIL,[5],326.67 CELLS/uL
same,BASOPHIL,[5],0%
same,EOSINOPHIL,[5],0%
same,ERYTHROCYTE COUNT,[5],4.79 x10E6/uL
same,HEMATOCRIT,[5],30.9%
same,HEMOGLOBIN,[5],12.47 G/DL
same,LEUKOCYTE COUNT,[5],4 x10E3/uL
same,LYMPHOCYTE,[5],91.33%
same,MEAN CORPUSCULAR HEMOGLOBIN,[5],26 pg
same,MEAN CORPUSCULAR HEMOGLOBIN CONCENTRATION,[5],40.33 G/DL
same,MEAN CORPUSCULAR VOLUME,[5],64.5 fL
same,MONOCYTE,[5],0.67%
same,NEUTROPHIL,[5],8%
same,NUCLEATED RED BLOOD CELLS,[5],0 /100WBC
same,PLATELET COUNT,[5],1133.33 x10E3/uL
same,ALANINE AMINOTRANSFERASE,[5],36.33 u/L
same,ALBUMIN,[5],3.77 G/DL
same,ASPARTATE AMINOTRANSFERASE,[5],71 u/L
same,BLOOD UREA NITROGEN,[5],9 mg/dL
same,CARBON DIOXIDE,[5],26 mmol/L
same,CHOLESTEROL,[5],79.67 mg/dL
same,CREATINE PHOSPHOKINASE,[5],235.33 u/L
same,CREATININE,[5],0.1 mg/dL
same,GLUCOSE,[5],189 mg/dL
same,LACTATE DEHYDROGENASE,[5],94.67 u/L
same,LIPASE,[5],11.33 u/L
same,PHOSPHORUS,[5],11.07 mg/dL
same,POTASSIUM,[5],4.56 MEQ/L
same,SODIUM,[5],142.5 MEQ/L
same,TOTAL BILIRUBIN,[5],0.1 mg/dL
same,TOTAL PROTEIN,[5],5.4 G/DL
same,URIC ACID,[5],0.37 mg/dL
same,ABSOLUTE BASOPHIL,[6],0 CELLS/uL
same,ABSOLUTE EOSINOPHIL,[6],0 CELLS/uL
same,ABSOLUTE MONOCYTE,[6],44.5 CELLS/uL
same,ABSOLUTE SEGMENTED NEUTROPHIL,[6],165.5 CELLS/uL
same,BASOPHIL,[6],0%
same,EOSINOPHIL,[6],0%
same,ERYTHROCYTE COUNT,[6],6.19 x10E6/uL
same,HEMATOCRIT,[6],38.1%
same,HEMOGLOBIN,[6],15.5 G/DL
same,LEUKOCYTE COUNT,[6],2.85 x10E3/uL
same,LYMPHOCYTE,[6],93%
same,MEAN CORPUSCULAR HEMOGLOBIN,[6],25.05 pg
same,MEAN CORPUSCULAR HEMOGLOBIN CONCENTRATION,[6],40.7 G/DL
same,MEAN CORPUSCULAR VOLUME,[6],61.55 fL
same,MONOCYTE,[6],1.5%
same,NEUTROPHIL,[6],5.5%
same,NUCLEATED RED BLOOD CELLS,[6],0 /100WBC
same,PLATELET COUNT,[6],975 x10E3/uL
same,ALANINE AMINOTRANSFERASE,[6],21.5 u/L
same,ALBUMIN,[6],4.1 G/DL
same,ASPARTATE AMINOTRANSFERASE,[6],87 u/L
same,BLOOD UREA NITROGEN,[6],106.5 mg/dL
same,CARBON DIOXIDE,[6],28 mmol/L
same,CHLORIDE,[6],92 MEQ/L
same,CHOLESTEROL,[6],83.5 mg/dL
same,CREATINE PHOSPHOKINASE,[6],328.5 u/L
same,CREATININE,[6],0.69 mg/dL
same,GLUCOSE,[6],115 mg/dL
same,LACTATE DEHYDROGENASE,[6],82 u/L
same,LIPASE,[6],10 u/L
same,PHOSPHORUS,[6],9.8 mg/dL
same,POTASSIUM,[6],6.46 MEQ/L
same,SODIUM,[6],133.6 MEQ/L
same,TOTAL BILIRUBIN,[6],0.15 mg/dL
same,TOTAL PROTEIN,[6],6.3 G/DL
same,URIC ACID,[6],0.35 mg/dL
